{"source": "paper PMC6612245", "about": "(Journal of the American Chemical Society, 2019)", "format_in_all_cases": "biochemical", "key": {"SkPurH": {"target": "T1, SkPurH (Streptomyces kaniharaensis, UniProt A0A6N7KQI7)", "T1 sequence (A0A6N7KQI7 24-525)": "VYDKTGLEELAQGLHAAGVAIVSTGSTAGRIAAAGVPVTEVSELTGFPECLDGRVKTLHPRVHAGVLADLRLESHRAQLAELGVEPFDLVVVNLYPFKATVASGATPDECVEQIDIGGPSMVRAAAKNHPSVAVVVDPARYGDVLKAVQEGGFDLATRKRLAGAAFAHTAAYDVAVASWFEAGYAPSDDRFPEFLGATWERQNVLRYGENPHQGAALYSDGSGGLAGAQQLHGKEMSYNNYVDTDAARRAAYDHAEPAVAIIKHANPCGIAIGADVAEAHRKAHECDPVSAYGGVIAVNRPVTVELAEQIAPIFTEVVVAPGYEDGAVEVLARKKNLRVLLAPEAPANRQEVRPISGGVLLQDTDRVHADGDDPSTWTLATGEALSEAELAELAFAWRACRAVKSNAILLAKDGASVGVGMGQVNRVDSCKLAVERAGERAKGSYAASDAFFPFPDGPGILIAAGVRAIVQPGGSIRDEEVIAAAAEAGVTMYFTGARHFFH", "experiment": "HPLC of product 6b", "details": "N10-formyl-THF; formylation without cyclization; 1 h"}, "EcPurH [1]": {"target": "T2, EcPurH (Escherichia coli, UniProt P15639)", "T2 sequence (P15639 whole entry)": "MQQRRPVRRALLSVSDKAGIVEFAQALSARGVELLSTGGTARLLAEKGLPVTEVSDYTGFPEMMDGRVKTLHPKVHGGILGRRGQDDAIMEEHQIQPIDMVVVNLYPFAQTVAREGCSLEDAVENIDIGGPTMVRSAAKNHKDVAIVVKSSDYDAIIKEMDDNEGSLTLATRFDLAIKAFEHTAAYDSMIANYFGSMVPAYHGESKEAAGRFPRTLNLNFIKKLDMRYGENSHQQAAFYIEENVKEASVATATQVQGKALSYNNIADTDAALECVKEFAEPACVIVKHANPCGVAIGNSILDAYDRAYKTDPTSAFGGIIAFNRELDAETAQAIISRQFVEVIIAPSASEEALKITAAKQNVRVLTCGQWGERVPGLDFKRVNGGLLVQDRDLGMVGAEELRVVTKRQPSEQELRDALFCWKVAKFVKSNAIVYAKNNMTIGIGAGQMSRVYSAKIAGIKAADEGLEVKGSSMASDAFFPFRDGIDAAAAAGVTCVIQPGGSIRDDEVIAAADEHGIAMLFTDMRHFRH", "experiment": "enzymatic preparation of 6b", "details": "formylation to 6b"}, "ForH [2]": {"target": "T3, ForH (Streptomyces kaniharaensis, UniProt A0A4V8H038)", "experiment": "HPLC of product 7b", "details": "cyclization to 7b; 10 min incubation"}, "ForH [3]": {"target": "T3, ForH", "experiment": "HPLC of product 7a", "details": "cyclization to 7a; 10 min incubation"}, "EcPurH [4]": {"target": "T2, EcPurH", "experiment": "HPLC", "details": "cyclization to 7a"}, "ForC": {"target": "T4, ForC (Streptomyces kaniharaensis, UniProt A0A5S9FY43)", "T4 sequence (A0A5S9FY43 1-333)": "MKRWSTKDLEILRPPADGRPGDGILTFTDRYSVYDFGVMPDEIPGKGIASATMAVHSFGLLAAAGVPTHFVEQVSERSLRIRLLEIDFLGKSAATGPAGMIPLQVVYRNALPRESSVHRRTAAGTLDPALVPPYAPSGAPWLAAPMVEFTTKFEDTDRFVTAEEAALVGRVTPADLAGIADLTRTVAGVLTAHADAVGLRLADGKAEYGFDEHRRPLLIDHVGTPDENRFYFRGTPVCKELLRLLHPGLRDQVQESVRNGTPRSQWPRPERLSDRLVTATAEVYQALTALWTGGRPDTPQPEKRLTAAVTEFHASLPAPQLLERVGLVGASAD", "experiment": "anion exchange HPLC, substrate consumption", "details": "L-aspartate and ATP; 4 h"}}, "data": [{"smiles": "NC(=O)c1[nH]nc([C@@H]2O[C@H](COP(=O)(O)O)[C@@H](O)[C@H]2O)c1N", "note": "[5b]", "values": [{"measurement": "HPLC of product 6b", "setting": "SkPurH", "value": "incubation of 5b with S. kaniharaensis PurH (SkPurH) resulted in formylation of the pyrazolic amide"}, {"measurement": "enzymatic preparation of 6b", "setting": "EcPurH [1]", "value": "6b was enzymatically prepared from 5b using E. coli PurH as the catalyst"}]}, {"smiles": "NC(=O)c1[nH]nc([C@@H]2O[C@H](COP(=O)(O)O)[C@@H](O)[C@H]2O)c1NC=O", "note": "[6b]", "values": [{"measurement": "HPLC of product 7b", "setting": "ForH [2]", "value": "ForH demonstrates cyclase activity towards both 6a and 6b"}]}, {"smiles": "NC(=O)c1ncn([C@@H]2O[C@H](COP(=O)(O)O)[C@@H](O)[C@H]2O)c1NC=O", "note": "[6a]", "values": [{"measurement": "HPLC of product 7a", "setting": "ForH [3]", "value": "ForH demonstrates cyclase activity towards both 6a and 6b"}, {"measurement": "HPLC (supplement)", "setting": "EcPurH [4]", "value": "6a could be processed to 7a, while 6b could not be converted to 7b"}]}, {"smiles": "Nc1c([C@@H]2O[C@H](COP(=O)(O)O)[C@@H](O)[C@H]2O)n[nH]c1C(=O)O", "note": "[3b]", "values": [{"measurement": "anion exchange HPLC, substrate consumption", "setting": "ForC", "value": "Incubation of 3b with ForC along with L-aspartate and ATP led to the production"}]}]}
